Tests used:
[1] = cited from earlier work
[2] = test system: Trichophyton rubrum, Trichophyton mentagrophytes and Epidermophyton floccosum; assay: Spontaneous resistance development, overall; format: cell-based
Procedure: Phenotypically resistant isolates were tested for MICs and compared to parental MICs.

[3] = test system: T. rubrum mycelia and microconidia; assay: Time-kill experiments; format: cell-based, Trichophyton rubrum; settings: for reduction in colony counts: 16×MIC, up to 24 hours, hyphae or microconidia in water (nongrowth)
Procedure: Time-kill experiments. […] Part of the conidial suspension was pelleted and resuspended in RPMI 1640 medium and grown for 16-18 hours overnight at room temperature to allow germination of microconidia. After germination, the hyphae were collected by centrifugation and resuspended in distilled water. […] Colony-forming units were counted after four days of incubation at 35° C.

| SMILES | solubility in dichloromethane [1] | solubility in methanol [1] | stable resistance of recovered isolates [2] | reduction in colony counts [3] | activity on nongrowing mycelia and conidia ([3]; FIG. 10) |
| --- | --- | --- | --- | --- | --- |
| CN(C/C=C/C#CC(C)(C)C)Cc1cccc2ccccc12.Cl [Terbinafine hydrochloride] | freely soluble | freely soluble |  |  |  |
| CN(C/C=C/C#CC(C)(C)C)Cc1cccc2ccccc12 [Terbinafine] |  |  | none of the isolates were stably resistant | None of the other compounds significantly reduced colony counts |  |
| Cc1cc(C2CCCCC2)n(O)c(=O)c1 [Ciclopirox] |  |  | none of the isolates were stably resistant | None of the other compounds significantly reduced colony counts | no activity against the conidial form |

Source: patent US8226965B2, “Methods of treating fungal, yeast and mold infections” (priority 2008, dated 2012)
